Earlier results on two molecules are cited in patent US8633167B2, “Method for the protection of trees” (Syngenta Crop Protection LLC, priority 2006, dated 2014).

For data set [1], the system named is SPB. The conditions noted are these: applied to foliage at two different rates; cited from earlier work.
Data set [2] relates to SPB. Conditions: applied by Mauget Injectors; cited from earlier work.

The structures appear in SMILES notation.

`COP(=O)(NC(C)=O)SC` (stereo not shown) [acephate]: in data set [1], the SPB larval survival result is recorded as “reduce” and the “effect on eggs, pupae, callow or parent adults” value is recorded as “no effect”.
For the molecule `COP(=O)(OC)O/C(C)=C/C(=O)N(C)C` [dicrotophos], in data set [2], the egg gallery length result is “significantly reduce” and the subsequent brood production entry is listed as “significantly reduce”.
